Results published in patent US20240269139A1, “COMPOUNDS FOR TARGETED PROTEIN DEGRADATION OF KINASES” (DANA-FARBER CANCER INSTITUTE, INC., priority 2020, published 2024).
Read-outs that look alike come from different tables or passages of the source.

Legend:
[1] = target: protein kinases (human kinome) (Homo sapiens, UniProt Q9HBH9); format: cell-based; details: for logFC MKNK2 (Q9HBH9): Experiment wp152; for logFC: MKNK2 (Q9HBH9-1)
[2] = target: protein kinases (human kinome) (Homo sapiens, UniProt P07947); format: cell-based; details: YES1 (P07947)
[3] = target: protein kinases (human kinome) (Homo sapiens, UniProt P53667); format: cell-based; details: LIMK1 (P53667-1)
[4] = target: protein kinases (human kinome) (Homo sapiens, UniProt Q16584); format: cell-based
[5] = target: T1, CRBN (Homo sapiens, UniProt Q96SW2); test: Competitive displacement assay for cellular CRBN engagement (BRD4BD2-GFP reporter, dBET6); format: cell-based, H. sapiens; details: 5 hours in presence of dBET6
T1 construct: HEK293T cells stably expressing the BRD4BD2-GFP with mCherry reporter; endogenous in cells; host or cells: HEK293T stably expressing BRD4BD2-GFP / mCherry reporter
Procedure: HEK293T cells stably expressing the BRD4BD2-GFP with mCherry reporter were seeded at 30-50% confluency in 384-well plates with 50 μL FluoroBrite™ Dulbecco's Modified Eagle's medium (DMEM) media (Thermo Fisher Scientific. A18967) containing 10% fetal bovine serum (FBS) per well a day before compound treatment. Degrader titrations and 100 nM dBET6 or 250 nM AT1 were dispensed using a D300e Digital Dispenser (HP), normalized to 0.5% DMSO, and incubated with cells for 5 hours. Assay plates were imaged using Acumen® (TTP Labtech), as described above.

SMILES: Cc1ccc(NC(=O)c2cccc(C(F)(F)F)c2)cc1N1Cc2cnc(Nc3ccc(N4CCN(Cc5cn(CCCCCOc6cccc7c6C(=O)N(C6CCC(=O)NC6=O)C7=O)nn5)CC4)nc3)nc2N(C)C1=O (centres unmarked) [DB0646, N-(3-(7-((6-(4-((1-(5-((2-(2,6-Dioxopiperidin-3-yl)-1,3-dioxoisoindolin-4-yl)oxy)pentyl)-1H-1,2,3-triazol-4-yl)methyl)piperazin-1-v)pyridin-3-yl)amino)-1-methyl-2-oxo-1,4-dihydropyrimido[4,5-d]pyrimidin-3(2H)-yl)-4-methylphenyl)-3-(trifluoromethyl)benzamide]
- logFC MKNK2 (Q9HBH9-1) ([1]; Experiment wp045, direction down): −0.4463
- logFC MKNK2 (Q9HBH9-1) ([1]; Experiment wp117, direction down): −0.3794
- logFC MKNK2 (Q9HBH9) ([1]; direction down): −0.4447
- logFC MKNK2 (Q9HBH9) ([1]; direction of change down): −0.4447
- logFC MKNK2 (Q9HBH9-1) ([1]; Experiment wp160, 4 hr, direction down): −0.5226
- logFC MKNK2 (Q9HBH9-1) ([1]; Experiment wp160, 8 hr, direction down): −0.6422
- logFC ([1]; experiment wp045): −0.4463
- logFC ([1]; experiment wp117): −0.3794
- logFC ([1]; experiment wp160, 4 hr): −0.5226
- logFC ([1]; experiment wp160, 8 hr): −0.6422
- logFC ([2]; experiment wp105): −0.3957
- logFC ([2]; experiment wp105, direction down): −0.3957
- logFC ([2]; experiment wp172): −0.471
- logFC ([2]; experiment wp172, direction down): −0.471
- logFC LIMK1 ([3]; direction down, experiment wp045): −0.5293
- logFC LIMK1 ([3]; direction down, experiment wp103): −1.497
- logFC LIMK1 ([3]; direction down, experiment wp105): −0.5641
- logFC LIMK1 ([3]; direction down, experiment wp107): −0.9768
- logFC LIMK1 ([3]; direction down, experiment wp117): −1.412
- logFC LIMK1 ([3]; direction down, experiment wp160, 2 hr): −0.7376
- logFC LIMK1 ([3]; direction down, experiment wp160, 4 hr): −1.563
- logFC LIMK1 ([3]; direction down, experiment wp160, 8 hr): −2.36
- logFC LIMK1 ([3]; direction down, experiment wp172): −1.32
- logFC LIMK1 ([3]; experiment wp045, down): −0.5293
- logFC LIMK1 ([3]; experiment wp103, down): −1.497
- logFC LIMK1 ([3]; experiment wp105, down): −0.5641
- logFC LIMK1 ([3]; experiment wp107, down): −0.9768
- logFC LIMK1 ([3]; experiment wp117, down): −1.412
- logFC LIMK1 ([3]; experiment wp160, 2 hr, down): −0.7376
- logFC LIMK1 ([3]; experiment wp160, 4 hr, down): −1.563
- logFC LIMK1 ([3]; experiment wp160, 8 hr, down): −2.36
- logFC LIMK1 ([3]; experiment wp172, down): −1.32
- logFC MAP3K11 (Q16584) ([4]; experiment wp107): −0.5077
- logFC MAP3K11 (Q16584) ([4]; experiment wp117): −0.4308
- cellular permeability / CRBN engagement [5]: able to permeate the cell membrane and bind to the CRBN E3 ligase
